US11390604B2 (Hoffmann-La Roche Inc., priority 2019, dated 2022)
Structures can show the parent of a compound that is named as a salt.

Tested on: Acinetobacter baumannii ATCC 17961
Experiment: Antimicrobial susceptibility testing: 90% growth inhibitory concentration (IC90) determination
Type: cell-based
Settings: ATCC17961, Acinetobacter baumannii ATCC 17961, Iso-Sensitest broth, read-out: ATCC 17961 IC90
In short: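 Growth was followed kinetically by OD600 at 20-min intervals for 16 h at 35±2 °C, with ~5×10^5 CFU/ml in Iso-Sensitest broth. Compounds were tested as twofold dilutions (e.g. 50–0.097 μM final). The concentration giving 90% inhibition of log-phase growth was reported.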

Compound | IC90
CC(C#N)n1cc(-c2cnc(C(=O)Nc3ccc(C(=O)N4CCN(C(=O)C5CCNCC5)CC4)c(Cl)c3)n2C)c(C(F)(F)F)n1 (stereo not shown) [Example 117, N-[3-chloro-4-[4-(piperidine-4-carbonyl)piperazine-1-carbonyl]phenyl]-5-[1-(1-cyanoethyl)-3-(trifluoromethyl)pyrazol-4-yl]-1-methylimidazole-2-carboxamide;formic acid] | 0.427 µM
Cn1c(-c2cn(CC3CC3)nc2C(F)(F)F)cnc1C(=O)Nc1ccc(C(=O)N2CCN(C(=O)[C@H]3[C@@H]4CNC[C@@H]43)CC2)c(F)c1 [Example 194, rac-N-(4-(4-((1R,5S,6r)-3-azabicyclo[3.1.0]hexane-6-carbonyl)piperazine-1-carbonyl)-3-fluorophenyl)-5-(1-(cyclopropylmethyl)-3-(trifluoromethyl)-1H-pyrazol-4-yl)-1-methyl-1H-imidazole-2-carboxamide hydrochloride] | 0.193 µM
Cn1c(-c2cn(C3CC3(F)F)nc2C(F)(F)F)cnc1C(=O)Nc1ccc(C(=O)N[C@H]2C[C@H]3CC[C@@H](C2)N3)c(Cl)c1 (mixture of isomers) [Example 346, rac-N-(4-(((1R,3r,5S)-8-azabicyclo[3.2.1]octan-3-yl)carbamoyl)-3-chlorophenyl)-5-(1-(2,2-difluorocyclopropyl)-3-(trifluoromethyl)-1H-pyrazol-4-yl)-1-methyl-1H-imidazole-2-carboxamide formate] | 0.446 µM
C#CCn1cc(-c2cnc(C(=O)Nc3ccc(C(=O)N4CCN(C(=O)N5CC6(CCN6)C5)CC4)c(Cl)c3)n2C)c(C(F)(F)F)n1 [Example 91, N-[3-chloro-4-[4-(1,6-diazaspiro[3.3]heptane-6-carbonyl)piperazine-1-carbonyl]phenyl]-1-methyl-5-[1-prop-2-ynyl-3-(trifluoromethyl)pyrazol-4-yl]imidazole-2-carboxamide] | 0.17 µM

The next lines start with the values.

IC90 | Compound
0.23 µM | Cn1c(-c2cn(CC3CC3)nc2C(F)(F)F)cnc1C(=O)Nc1ccc(C(=O)N2CCN(C(=O)CN)CC2)c(Cl)c1 [Example 209, N-(3-chloro-4-(4-glycylpiperazine-1-carbonyl)phenyl)-5-(1-(cyclopropylmethyl)-3-(trifluoromethyl)-1H-pyrazol-4-yl)-1-methyl-1H-imidazole-2-carboxamide]
0.427 µM | Cn1c(-c2cn(C3CC3)nc2C(F)(F)F)cnc1C(=O)Nc1ccc(C(=O)N2CCC(C(=O)N[C@H]3C[C@H](N)C3)CC2)c(Cl)c1 [Example 339, N-(3-aminocyclobutyl)-1-[2-chloro-4-[[5-[1-cyclopropyl-3-(trifluoromethyl)pyrazol-4-yl]-1-methyl-imidazole-2-carbonyl]amino]benzoyl]piperi-dine-4-carboxamide; formic acid]
0.466 µM | CCc1cc(NC(=O)c2ncc(-c3cn(CC(F)F)nc3C(F)(F)F)n2C)ccc1C(=O)NCCCCCN [Example 356, N-(4-((5-aminopentyl)carbamoyl)-3-ethylphenyl)-5-(1-(2,2-difluoroethyl)-3-(trifluoromethyl)-1H-pyrazol-4-yl)-1-methyl-1H-imidazole-2-carboxamide hydrochloride]
